Here are results for three compounds from ChEMBL document CHEMBL1148622, “Structural insight into the stereoselective inhibition of MMP-8 by enantiomeric sulfonamide phosphonates” (J Med Chem, 2006).

Experiment [1] concerns the target T1, Stromelysin-1 (Homo sapiens, UniProt P08254). Briefly: Inhibitory activity against MMP3.
Target sequence in this assay (P08254 whole entry): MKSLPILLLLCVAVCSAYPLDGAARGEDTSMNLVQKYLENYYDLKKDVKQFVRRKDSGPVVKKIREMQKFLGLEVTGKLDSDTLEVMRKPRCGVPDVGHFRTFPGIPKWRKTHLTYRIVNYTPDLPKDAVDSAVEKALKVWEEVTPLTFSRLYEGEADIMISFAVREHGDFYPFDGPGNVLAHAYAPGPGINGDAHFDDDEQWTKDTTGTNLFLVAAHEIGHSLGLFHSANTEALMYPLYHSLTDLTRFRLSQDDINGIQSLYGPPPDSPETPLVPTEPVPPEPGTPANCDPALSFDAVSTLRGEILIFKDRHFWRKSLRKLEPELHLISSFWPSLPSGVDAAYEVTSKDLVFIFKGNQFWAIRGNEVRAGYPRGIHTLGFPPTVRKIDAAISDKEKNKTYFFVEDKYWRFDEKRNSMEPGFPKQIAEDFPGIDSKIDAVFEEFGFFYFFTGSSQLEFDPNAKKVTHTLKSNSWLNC
Experiment [2] concerns the target 72 kDa type IV collagenase (Homo sapiens, UniProt P08253). Briefly: Inhibitory activity against MMP2.
Experiment [3] has as its target T1, Stromelysin-1. Briefly: Inhibitory activity against MMP3 at 0.1 mM.
Target sequence in this assay (P08254 100-477 limits assumed): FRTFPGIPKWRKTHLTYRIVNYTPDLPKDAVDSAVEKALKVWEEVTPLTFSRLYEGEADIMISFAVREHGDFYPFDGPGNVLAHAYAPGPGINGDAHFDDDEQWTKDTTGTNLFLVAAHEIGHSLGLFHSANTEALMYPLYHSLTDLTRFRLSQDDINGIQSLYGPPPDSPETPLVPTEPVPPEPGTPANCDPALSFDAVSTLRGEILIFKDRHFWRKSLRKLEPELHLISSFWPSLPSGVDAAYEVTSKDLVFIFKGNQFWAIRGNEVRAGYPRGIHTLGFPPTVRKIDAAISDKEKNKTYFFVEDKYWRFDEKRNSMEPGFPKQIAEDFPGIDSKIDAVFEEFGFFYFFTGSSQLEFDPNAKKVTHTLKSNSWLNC

72 kDa type IV collagenase, sequence (P08253 whole entry): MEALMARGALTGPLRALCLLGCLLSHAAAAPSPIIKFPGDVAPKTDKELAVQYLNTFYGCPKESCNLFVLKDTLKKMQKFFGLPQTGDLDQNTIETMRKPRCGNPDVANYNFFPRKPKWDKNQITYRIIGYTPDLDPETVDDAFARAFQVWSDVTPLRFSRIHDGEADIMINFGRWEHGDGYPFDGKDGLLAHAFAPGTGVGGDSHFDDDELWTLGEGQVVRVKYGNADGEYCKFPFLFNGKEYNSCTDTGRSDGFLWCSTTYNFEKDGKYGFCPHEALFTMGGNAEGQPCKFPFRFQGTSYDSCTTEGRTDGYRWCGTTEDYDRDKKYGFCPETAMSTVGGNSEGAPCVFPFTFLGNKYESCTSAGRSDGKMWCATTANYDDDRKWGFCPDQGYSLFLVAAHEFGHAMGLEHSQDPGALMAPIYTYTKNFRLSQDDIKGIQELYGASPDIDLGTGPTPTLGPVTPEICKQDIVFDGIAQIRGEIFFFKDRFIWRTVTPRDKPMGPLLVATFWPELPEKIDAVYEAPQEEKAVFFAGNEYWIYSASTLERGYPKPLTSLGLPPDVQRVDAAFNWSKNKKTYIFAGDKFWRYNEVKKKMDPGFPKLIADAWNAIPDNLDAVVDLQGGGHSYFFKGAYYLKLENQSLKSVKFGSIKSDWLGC

Take `CC(C)[C@@H](NS(=O)(=O)c1ccc(-c2ccc(Br)cc2)cc1)C(=O)NO`: the IC50 against Stromelysin-1 [1] is 8 nM; in experiment [2], 3 nM.

On to `COc1ccc(-c2ccc(S(=O)(=O)N[C@H](C(C)C)P(=O)(O)O)cc2)cc1`, for which, on Stromelysin-1 [3], the inhibition is under 15%. In experiment [2], affinity was put at a Ki of 1200 nM.

For the compound `COc1ccc(-c2ccc(S(=O)(=O)N[C@@H](C(C)C)P(=O)(O)O)cc2)cc1`, the Ki on Stromelysin-1 [1] was determined as 40 nM; in experiment [2] it was 5 nM.
